According to US8735414B2 (priority 2009, dated 2014):

What was measured:
[1] = tested on: bicistronic HCV replicon (replicon RNA, GenBank Accession No. AJ242654); test: HCV Replicon Assay; assay type: cell-based; conditions: Hepatitis C virus, 72 h, read-out: Replicon IC50

SMILES | IC50 [1] | melting point
CC(C)NS(=O)(=O)c1cnc(-c2c(C#N)c3cc(Cl)ccc3n2C2CCCCC2)nc1 [compound 97, 2-(5-chloro-3-cyano-1-cyclohexyl-1H-indol-2-yl)-N-(propan-2-yl)pyrimidine-5-sulfonamide] | 500 to 2000 nM | 210 to 215 °C
CC(C)n1c(-c2ccc(S(=O)(=O)N[C@H](C)C(F)(F)F)cn2)c(C#N)c2ccc(OC(F)F)cc21 [compound 194, 6-[3-cyano-6-(difluoromethoxy)-1-(propan-2-yl)-1H-indol-2-yl]-N-[(2R)-1,1,1-trifluoropropan-2-yl]pyridine-3-sulfonamide] | < 500 nM | 166 to 168 °C
C[C@@H](NS(=O)(=O)c1ccc(-c2c(C#N)c3cc(F)ccc3n2C2CCCC2)nc1)C(F)(F)F [compound 220, 6-(3-cyano-1-cyclopentyl-5-fluoro-1H-indol-2-yl)-N-[(2R)-1,1,1-trifluoropropan-2-yl]pyridine-3-sulfonamide] | < 500 nM | 158 to 160 °C
Cc1ccc2c(c1)c(C#N)c(-c1ccc(S(=O)(=O)NC(CF)CF)cn1)n2C1CCCC1 [compound 158, 6-(3-cyano-1-cyclopentyl-5-methyl-1H-indol-2-yl)-N-(1,3-difluoropropan-2-yl)pyridine-3-sulfonamide] | < 500 nM | 168 to 173 °C
Cc1cc2c(cc1F)c(C(N)=O)c(-c1ccc(S(N)(=O)=O)cn1)n2C1CCCCC1 [compound 715, 1-cyclohexyl-5-fluoro-6-methyl-2-(5-sulfamoylpyridin-2-yl)-1H-indole-3-carboxamide] | < 500 nM | 254 to 257 °C
C[C@H](NS(=O)(=O)c1cnc(-c2c(C#N)c3ccc(F)cc3n2C2CCC2)nc1)C1CC1 [compound 496, 2-(3-cyano-1-cyclobutyl-6-fluoro-1H-indol-2-yl)-N-[(1S)-1-cyclopropylethyl]pyrimidine-5-sulfonamide] | 500 to 2000 nM | 207 to 208 °C
Cc1ccc2c(c1)c(C#N)c(-c1ncc(S(=O)(=O)N[C@@H](C)C(F)(F)F)cn1)n2C1CCC1 [compound 414, 2-(3-cyano-1-cyclobutyl-5-methyl-1H-indol-2-yl)-N-[(2S)-1,1,1-trifluoropropan-2-yl]pyrimidine-5-sulfonamide] | < 500 nM | 190 to 195 °C
CCc1cc2c(cc1F)c(C(N)=O)c(-c1ccc(S(=O)(=O)N[C@@H](C)C(F)(F)F)cn1)n2-c1cccnn1 [compound 1046, 6-ethyl-5-fluoro-1-(pyridazin-3-yl)-2-(5-{[(2S)-1,1,1-trifluoropropan-2-yl]sulfamoyl}pyridin-2-yl)-1H-indole-3-carboxamide] | 2000 to 5000 nM | 206 to 212 °C
N#Cc1c(-c2ccc(S(=O)(=O)NC(CF)CF)cn2)n(C2CCCC2)c2cc(F)ccc12 [compound 307, 6-(3-cyano-1-cyclopentyl-6-fluoro-1H-indol-2-yl)-N-(1,3-difluoropropan-2-yl)pyridine-3-sulfonamide] | < 500 nM | 166 to 168 °C
CCCS(=O)(=O)Nc1ccc(-c2c(C#N)c3ccc(Oc4nccnc4C#N)cc3n2C2CCC2)nc1 [compound 273, N-(6-{3-cyano-6-[(3-cyanopyrazin-2-yl)oxy]-1-cyclobutyl-1H-indol-2-yl}pyridin-3-yl)propane-1-sulfonamide] | < 500 nM | 252 to 254 °C
CC(C)n1c(-c2ccc(S(=O)(=O)NC3CCC3)cn2)c(C#N)c2ccc(OC(F)F)cc21 [compound 2, 6-[3-cyano-6-(difluoromethoxy)-1-(propan-2-yl)-1H-indol-2-yl]-N-cyclobutylpyridine-3-sulfonamide] | < 500 nM | 130 to 132 °C
Cc1ccc2c(c1)c(C#N)c(-c1ccc(S(=O)(=O)NC(C)(C)C(F)(F)F)cn1)n2C1CCCC1 [compound 607, 6-(3-cyano-1-cyclopentyl-5-methyl-1H-indol-2-yl)-N-(1,1,1-trifluoro-2-methylpropan-2-yl)pyridine-3-sulfonamide] | < 500 nM | 176 to 181 °C
Cc1cc2c(cc1F)c(C#N)c(-c1ccc(S(=O)(=O)N[C@@H](C)C(F)(F)F)cn1)n2-c1cccs1 [compound 990, 6-[3-cyano-5-fluoro-6-methyl-1-(thiophen-2-yl)-1H-indol-2-yl]-N-[(2S)-1,1,1-trifluoropropan-2-yl]pyridine-3-sulfonamide] | < 500 nM | 233 to 240 °C
N#Cc1c(-c2ncc(S(=O)(=O)NC(CF)CF)cn2)n(C2CCCC2)c2cc(OC(F)F)ccc12 [compound 233, 2-[3-cyano-1-cyclopentyl-6-(difluoromethoxy)-1H-indol-2-yl]-N-(1,3-difluoropropan-2-yl)pyrimidine-5-sulfonamide] | < 500 nM | 199 to 201 °C
C[C@H](NS(=O)(=O)c1ccc(-c2c(C#N)c3ccc(OC(F)(F)F)cc3n2C2CCCC2)nc1)C(F)(F)F [compound 358, 6-[3-cyano-1-cyclopentyl-6-(trifluoromethoxy)-1H-indol-2-yl]-N-[(2S)-1,1,1-trifluoropropan-2-yl]pyridine-3-sulfonamide] | < 500 nM | 168 to 170 °C
Cc1cc2c(cc1F)c(C(=O)O)c(-c1ccc(S(=O)(=O)NC(C)(C)C)cn1)n2C1CCCC1 [compound 766, 2-[5-(tert-butylsulfamoyl)pyridin-2-yl]-1-cyclopentyl-5-fluoro-6-methyl-1H-indole-3-carboxylic acid] | < 500 nM | 238 to 240 °C
CCc1cc2c(cc1F)c(C#N)c(-c1ccc(S(=O)(=O)N[C@@H](C)C(F)(F)F)cn1)n2-c1ccncc1 [compound 974, 6-[3-cyano-6-ethyl-5-fluoro-1-(pyridin-4-yl)-1H-indol-2-yl]-N-[(2S)-1,1,1-trifluoropropan-2-yl]pyridine-3-sulfonamide] | < 500 nM | 209 to 215 °C
C[C@H](NS(=O)(=O)c1cnc(-c2c(C#N)c3cc(F)ccc3n2C2CCCCC2)nc1)C(F)(F)F [compound 393, 2-(3-cyano-1-cyclohexyl-5-fluoro-1H-indol-2-yl)-N-[(2S)-1,1,1-trifluoropropan-2-yl]pyrimidine-5-sulfonamide] | < 500 nM | 236 to 238 °C
CC(C)NS(=O)(=O)c1cnc(-c2c(C#N)c3ccc(C4CCC4)cc3n2C2CCC2)nc1 [compound 265, 2-(3-cyano-1,6-dicyclobutyl-1H-indol-2-yl)-N-(propan-2-yl)pyrimidine-5-sulfonamide] | 500 to 2000 nM | 192 to 194 °C
Cc1c(F)cc2c(C#N)c(-c3ccc(S(=O)(=O)N[C@H](C)C(F)(F)F)cn3)n(C3CCC3)c2c1F [compound 666, 6-(3-cyano-1-cyclobutyl-5,7-difluoro-6-methyl-1H-indol-2-yl)-N-[(2R)-1,1,1-trifluoropropan-2-yl]pyridine-3-sulfonamide] | < 500 nM | 185 to 190 °C
Cc1cnc(-n2c(-c3ccc(S(=O)(=O)N[C@@H](C)C(F)(F)F)cn3)c(C#N)c3cc(F)c(C)cc32)nc1 [compound 925, 6-[3-cyano-5-fluoro-6-methyl-1-(5-methylpyrimidin-2-yl)-1H-indol-2-yl]-N-[(2S)-1,1,1-trifluoropropan-2-yl]pyridine-3-sulfonamide] | < 500 nM | 179 to 184 °C
